Assay results published in US20230263817A1, “HIGH DOSE NICOTINAMIDE ADENINE DINUCLEOTIDE (NAD) PRECURSOR REGIMENS FOR REDUCTION OF INFLAMMATION IN HUMAN PATIENTS WITH PREEXISTING INFLAMMATION” (University of Washington, priority 2021, published 2023).

How the values were obtained:
[1] = Whole blood NAD+ in Stage D HF patients on oral NR for 5-9 days; format: in vivo, human; conditions: oral NR up to 1000 mg twice a day, post vs pre
Protocol: For experiments associated with the oral NR administration (FIGS. 12C-12F), 5 hospitalized Stage D HF patients undergoing advanced heart failure therapy evaluations were put on escalating doses of NR (250 mg twice a day for Day 1, 500 mg twice a day for Day 2, and 1000 mg twice a day from Day 3 on) for 5-9 days. Fasting blood samples were obtained for PBMC isolation at baseline and post-NR administration. Subject 5 was withdrawn due to a change in clinical course deemed to be independent from NR administration.
Whole bloodNAD^+ assays. These were performed as previously described (Airhart S E, et al., PLoS One. 2017, 12(12):e0186459). Briefly, 50 μL of thawed blood samples were added to tubes containing 1 μg BMP as the internal standard and immediately followed by 300 μL of 4% trichloroacetic acid to precipitate proteins. Calibration standards were similarly prepared except that the matrix was 30 mg/mL BSA spiked with NAD^+ and NMN that had been dissolved in methanol. After protein precipitation and high-speed centrifugation, the supernatants were loaded onto Costar Spin-X 0.22 μm spin filters and subject to high speed centrifugation again. The eluates were injected onto an Agilent 1100 series high performance liquid chromatograph coupled to an Agilent G1956B single-quadrupole mass spectrometer. The mass spectrometer was operated in electrospray ionization mode with positive polarity.

[2] = Randomized placebo-controlled 12-week trial of NR in clinically-stable HFrEF: safety and tolerability; format: in vivo, human
Excerpt: The remaining 30 participants met all the prespecified inclusion criteria of: 1) Systolic HF (LVEF<40%, as determined by transthoracic echocardiogram) of non-ischemic or ischemic etiologies, 2) clinically stable (no cardiac procedures or hospitalizations for cardiac causes, including HF, ischemia or arrhythmia) within the prior 3 months, 3) ability to perform Study procedures (including study visits, blood draws and 6MWT), 4) willingness/ability to provide informed consent. None had any of the following exclusion criteria: 1) Heart failure with preserved ejection fraction (LVEF>40%), 2) HF etiologies other than non-ischemic or ischemic, 3) cardiac procedures, including, cardiac surgery, PCI, or cardiac device implantation, within the previous 3 months, 4) hospitalizations for cardiovascular causes, including HF, chest pain, stroke/TIA or arrhythmias within the prior 3 months, 5) inability to perform Study visits or procedures (e.g., physical inability to perform 6MWT), 6) unwillingness or inability to provide informed consent, 7) Alanine transaminase (ALT)>×3 upper limit of normal, hepatic insufficiency or active liver disease, 8) recent history of acute gout, 9) chronic renal insufficiency with serum creatinine ≥2.5 mg/dl, 10) pregnant or likely to become pregnant, 11) significant co-morbidity likely to cause death within 6 months, 12) significant history of active substance abuse within the previous 5 years, 13) current participation in a clinical trial of a study drug or intervention, and 14) prior intolerance to NR precursors, including niacin or nicotinamide. Follow-up was completed on all 30 participants. Study medication was discontinued in one participant due to gastrointestinal intolerance, but they completed all follow-up visits and procedures. The final participant refused to complete any study visits or procedures after the Week 0 (Randomization Visit), but their vital status was confirmed at the end of the Study. No participants were excluded from analysis, which followed the principal of intention-to-treat. The standardized method for characterizing adverse events employed in the UW Clinical Trials Unit is the Common Terminology Criteria for Adverse Events v3.0 (CTCAE). There were 18 protocol deviations.
Study Design: The overall Study Design is depicted graphically in FIG. 15. Participant clinic visits, medication dispensing and data collection were performed on the Translational Research Unit (TRU) at the University of Washington (UW). […] History included assessment with the Minnesota Living with Heart Failure Questionnaire (MLHFQ), under license from the University of Minnesota (Minneapolis, Minn.).
Participants were randomized to NR or placebo at a 2:1 allocation ratio by the University of Washington Investigational Drug Service, which assigned Study IDs and dispensed study medications.
At Week 0 (Randomization), participants underwent history, repeat 6MWD assessment and baseline transthoracic echocardiogram (FIG. 15). NR or matching placebo were started at the initial dose of 250 mg orally twice daily, then up-titrated by 250 mg twice daily each week to a final dose of 1000 mg twice daily by Week 3. Participants were continued on the 1000 mg twice daily dose until the final clinic visit on Week 12. Blood draws for study labs, including levels of NR and NAD were obtained at Weeks 0, 2, 4 and 12. Medications were dispensed at Weeks 0, 2, 4 and 8, with pill counts performed at Weeks 2, 4, 8 and 12. A telephone visit was performed at Week 6. The final echocardiogram and PBMC mitochondrial respiration assays were performed at Week 12. Study labs were performed by the UW Research Testing Service, except for NR and NAD+ assays, which were performed by the Pharmacokinetics Laboratory, Department of Pharmaceutics, UW School of Pharmacy. Procedures for blood collection and processing, as well as NR and NAD+ assay procedures, have been described previously (Airhart S E, et al., PLoS One. 2017, 12:e0186459).

For `NC(=O)c1ccc[n+]([C@@H]2O[C@H](CO)[C@@H](O)[C@H]2O)c1` [NR, nicotinamide riboside], the “whole blood NAD+ levels” value [1] was “increases”, the “total AEs reported on-trial” value ([2]; 20-participant NR group) was 63 and the “treatment-emergent laboratory abnormalities, NR vs placebo” value ([2]; HFrEF, 12 weeks) was “no significant differences”. For the same molecule, the “treatment-emergent adverse events (AEs), NR vs placebo” value ([2]; HFrEF, up to 1000 mg twice daily, 12 weeks) was “no between-group differences”, the safety and tolerability ([2]; dose up to 1000 mg twice daily, total treatment duration of 12 weeks) was “well-tolerated” and the out-of-range lab values ([2]; patients randomized to NR) was “creatinine greater than 1.5× but less than 3× baseline on 2 occasions in 1 patient”. The “percentages of dispensed capsules taken (range)” value ([2]; returned pill counts, NR group) was 97 (91-100) %.
